Reference: US5043328A, “Formulations containing unsaturated fatty acids for the synthesis of prostaglandins and hydroxy-fatty acids in biological systems” (priority 1986, dated 1991)
Read-outs that look alike come from different tables or passages of the source. No end group written: not given here.

Target: T1, enzyme (from seminal vesicles of sheep) (Ovis aries, UniProt P05979)
T1 sequence (P05979 25-600): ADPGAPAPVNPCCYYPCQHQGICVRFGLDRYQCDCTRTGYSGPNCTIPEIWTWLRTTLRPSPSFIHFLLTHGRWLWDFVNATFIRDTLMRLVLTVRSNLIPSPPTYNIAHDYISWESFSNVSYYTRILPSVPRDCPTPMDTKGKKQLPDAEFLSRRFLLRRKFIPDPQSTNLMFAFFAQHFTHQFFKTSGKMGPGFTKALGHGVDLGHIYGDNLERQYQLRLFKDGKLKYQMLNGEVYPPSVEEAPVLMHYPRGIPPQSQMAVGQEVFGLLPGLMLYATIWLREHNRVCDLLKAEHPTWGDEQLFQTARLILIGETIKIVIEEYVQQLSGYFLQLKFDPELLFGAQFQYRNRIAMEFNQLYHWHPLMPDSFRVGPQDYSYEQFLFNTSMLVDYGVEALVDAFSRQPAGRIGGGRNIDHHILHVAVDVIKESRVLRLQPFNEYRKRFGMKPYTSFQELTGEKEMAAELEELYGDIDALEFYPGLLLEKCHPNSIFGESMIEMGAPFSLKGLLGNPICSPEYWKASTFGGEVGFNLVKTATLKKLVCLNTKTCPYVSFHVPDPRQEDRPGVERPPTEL
Conditions: for stimulation of prostaglandin synthesis with much smaller quantities of undesired byproducts: mixtures with polyunsaturated fatty acids such as arachidonic acid
Description: Method 2: Prostaglandin Synthesis
0.3 ml of 0.03M potassium phosphate buffer of pH=8.0 contains 0.5 mg of enzyme (from seminal vesicles of sheep) (Biochemistry 10 (1971) 2372) or homogenate of the inner kidney medulla (Life Sciences 26 (1980) 765), 2.75 μg of ^14 C-arachidonic acid (0.5 μCi) and 0.5 mg of stimulator, and, if appropriate, 0.5 mg of stabilizer substance (see Table 1). After 10 minutes' incubation at 37° C., the reaction is stopped with 0.05 ml of 1.2M citric acid and the mixture is extracted with twice 0.5 ml of ethyl acetate, the combined extracts are freed of solvent, and the residue is dissolved in 0.2 ml of methanol, diluted 1:1 with water and separated by HPLC (nucleosil C-18 column, 125×4.6 mm, from Bischoff, Leonberg, Germany, solvent 300 ml of acetonitrile, 700 ml of water and 1 ml of glacial acetic acid and after 30 minutes pure methanol). The separation of the radioactive fractions is followed by a monitor (LB 504 from Berthold, Wildbad, Germany). The products formed, such as 6-keto-prostaglandin F2alpha, prostaglandin E2, prostaglandin F2alpha and prostaglandin D2, are separated under these conditions.
The prostaglandins PGE2, PGF2 alpha and PGD2 as products from arachidonic acid where quantified by means of method 2, and the sum was related as "total prostaglandin" to 100%. The quantity of "total prostaglandin" formed without the addition of a stimulator was set at f=1; the quantity formed after stimulation was related thereto. f=2 or f=3 therefore means twice or three times the stimulation under the conditions of method 2. The stability of the sample was investigated by means of method 1 (right-hand column). […] Values greater than 25-28% therefore represent a stabilization, and values smaller than 25-28% represent a destabilization. Example No. 1 was carried out without a stimulator. […] The substances test with respect to stabilization (see Method 1 for quantities) were: A) aqueous solution without stabilizer addition, B) ethanolic solution without further addition, C) pyridine solution, D) with rutin, predissolved in dimethyl sulfoxide, dimethyl sulfoxide then stripped off, E) like B) with lecithin, ethanol stripped off, F) like A) with cytochrome c from horse heart (from Boehringer, Mannheim, Germany), G) like A) with methemoglobin (human) (from Sigman, Munich, Germany), H) like A) with bovine serum albumin (from Calbiochem, Frankfurt, Germany), J) like A) or B), but solvent stripped off, K) like J) with cytochrome c, L) like J) with hemoglobin (human) (from Behringwerke, Marburg, Germany), and M) like J) with human serum albumin (from Behringwerke, Marburg, Germany).

[1] = seminal vesicle enzyme, 10 min, pH 8
[2] = Table 1, share of total prostaglandin (=100%)
[3] = Table 2, share of total prostaglandin
[4] = Table 1, 0.5 mg stimulator, 10 min 37° C., without stimulator f=1

With `O=C(O)CCCC[C@@H](S)CCS` (racemic) [Example 42, Dihydrolipoic acid, reference compound] the “stimulation of prostaglandin synthesis with much smaller quantities of undesired byproducts” value (“stimulation of prostaglandin synthesis” for short) (result in words) was “not possible to achieve these advantageous effects” and the “relative total prostaglandin f” value [1] was 1.0.

In the case of `Cc1cccc(O)c1` [Example 2, m-cresol, reference compound], the PGD2 % [2] is reported as 2%, the PGE2 % [2] is reported as 98% and the PGF2alpha % [2] is reported as 0%.

With `Oc1ccccc1` [Example 3, phenol, reference compound] the PGD2 % [2] was 18%, the PGE2 % [2] was 77% and the PGF2alpha % [2] was 5%.

Compound `N[C@@H](Cc1ccccc1)C(=O)O` [Example 4, L-phenylalanine, reference compound] has a PGD2 % [2] of 18%, a PGE2 % [2] of 80% and a PGF2alpha % [2] of 2%.

Work on `NCCc1ccc(O)cc1` [Example 7] yielded a PGD2 % [2] of 17%, a PGE2 % [2] of 80% and a PGF2alpha % [2] of 3%. The “relative total prostaglandin f” value [1] was 4,0.

For `O=C(O)CCc1ccc(O)cc1` [Example 8], the PGD2 % [2] was 16%, the PGE2 % [2] was 83% and the PGF2alpha % [2] was 1%.

Compound `NC(Cc1ccc(O)c(O)c1)C(=O)O` (stereo not shown) [Example 9] has a PGD2 % [2] of 16%, a PGE2 % [2] of 70% and a PGF2alpha % [2] of 14%. The “relative total prostaglandin f” value [1] was 9.4.

`NCC(O)c1ccc(O)c(O)c1` (stereo not shown) [Example 12] showed a PGD2 % [2] of 17%, a PGE2 % [2] of 66% and a PGF2alpha % [2] of 17%. The “relative total prostaglandin f” value [1] was 8.3.

`CNCC(O)c1ccc(O)c(O)c1` (stereo not shown) [Example 13] was tested, and the PGD2 % [2] was 18%, the PGE2 % [2] was 70% and the PGF2alpha % [2] was 12%.

`Oc1ccc(O)cc1` [Example 14] gave a PGD2 % [2] of 19%, a PGE2 % [2] of 69% and a PGF2alpha % [2] of 12%.

For `COc1cc(C(=O)O)ccc1O` [Example 15], the PGD2 % [2] was 17%, the PGE2 % [2] was 71% and the PGF2alpha % [2] was 12%.

`O=C(O)c1ccc(O)cc1` [Example 16] showed a PGD2 % [2] of 18%, a PGE2 % [2] of 69% and a PGF2alpha % [2] of 13%.

In the case of `NC(Cc1c[nH]c2ccccc12)C(=O)O` (stereo not shown) [Example 18], the PGD2 % [2] is reported as 21%, the PGE2 % [2] is reported as 76% and the PGF2alpha % [2] is reported as 3%. The “relative total prostaglandin f” value [1] was 9.8.

With `NC(Cc1c[nH]c2ccc(O)cc12)C(=O)O` (stereo not shown) [Example 19] the PGD2 % [2] was 18%, the PGE2 % [2] was 79% and the PGF2alpha % [2] was 3%. The “relative total prostaglandin f” value [1] was 10.1.

`O=C(O)CCc1c[nH]c2ccccc12` [Example 20] was tested, and the PGD2 % [2] was 16%, the PGE2 % [2] was 82% and the PGF2alpha % [2] was 2%.

Work on `N[C@H](CS)C(=O)O` [Example 34, D-cysteine] yielded a PGD2 % [2] of 23%, a PGE2 % [2] of 63% and a PGF2alpha % [2] of 14%.

For `CC(=O)NC(CS)C(=O)O` (stereo not shown) [Example 37, NAcetylcysteine], the PGD2 % [2] was 25%, the PGE2 % [2] was 61% and the PGF2alpha % [2] was 14%.

For `O[C@H](CS)[C@H](O)CS` [Example 39, Dithiothreitol, reference compound], the “stimulation of prostaglandin synthesis” value (result in words) was “not possible to achieve these advantageous effects” and the “relative total prostaglandin f” value [1] was 0.8.

In the case of `O[C@H](CS)[C@@H](O)CS` [Example 40, Dithioerythritol, reference compound], the “stimulation of prostaglandin synthesis” value (result in words) is reported as “not possible to achieve these advantageous effects” and the “relative total prostaglandin f” value [1] is reported as 0.85.

With `N[C@@H](CSSC[C@H](N)C(=O)O)C(=O)O` [Example 41, Cystine, reference compound] the PGD2 % [2] was 15%, the PGE2 % [2] was 85% and the PGF2alpha % [2] was 0%. The “stimulation of prostaglandin synthesis” value (result in words) was “not possible to achieve these advantageous effects” and the “relative total prostaglandin f” value [1] was 1.0.

With `NCCS` [Example 43, Cysteamine, reference compound] the “stimulation of prostaglandin synthesis” value (result in words) was “not possible to achieve these advantageous effects” and the “relative total prostaglandin f” value [1] was 0.9.

For `CC(C)(COP(=O)(O)OP(=O)(O)OC[C@H]1O[C@@H](n2cnc3c(N)ncnc32)[C@H](O)[C@@H]1OP(=O)(O)O)[C@@H](O)C(=O)NCCC(=O)NCCS` [Example 45, Coenzyme A, reference compound], the “stimulation of prostaglandin synthesis” value (result in words) was “not possible to achieve these advantageous effects” and the “relative total prostaglandin f” value [1] was 1.0.

With `CC(C)(CO)[C@@H](O)C(=O)NCCC(=O)NCCS` [Example 46, Pantetheine, reference compound] the “stimulation of prostaglandin synthesis” value (result in words) was “not possible to achieve these advantageous effects” and the “relative total prostaglandin f” value [1] was 0.95.

`CC1=C(C)C(=O)C(CC[C@](C)(O)CCC[C@H](C)CCC[C@H](C)CCCC(C)C)=C(C)C1=O` [Example 51, D-alpha-Tocopheryl-quinone] showed a PGD2 % [3] of 15%, a PGE2 % [3] of 80% and a PGF2alpha % [3] of 5%.

For `C[C@@H]1O[C@@H](OC[C@H]2O[C@@H](Oc3c(-c4ccc(O)c(O)c4)oc4cc(O)cc(O)c4c3=O)[C@H](O)[C@@H](O)[C@@H]2O)[C@H](O)[C@H](O)[C@H]1O` [Example 52, Rutin], the PGD2 % [3] was 18%, the PGE2 % [3] was 76% and the PGF2alpha % [3] was 6%. For the same compound, the “relative total prostaglandin f” value [1] was 6.

`O=c1c(O)c(-c2ccc(O)c(O)c2)oc2cc(O)cc(O)c12` [Example 57, Quercetin] was tested, and the PGD2 % [3] was 10%, the PGE2 % [3] was 72% and the PGF2alpha % [3] was 18%. The “relative total prostaglandin f” value [1] was 0.3.

`Oc1cc(O)c2c(c1)OC(c1ccc(O)c(O)c1)C(O)C2` (stereo not shown) [Example 58, Catechin] gave a PGD2 % [3] of 12%, a PGE2 % [3] of 70% and a PGF2alpha % [3] of 18%.

`O=C(CCc1ccc(O)cc1)c1c(O)cc(O)cc1O` [Example 60, Phloretin] showed a PGD2 % [3] of 13%, a PGE2 % [3] of 76% and a PGF2alpha % [3] of 11%.

Work on `O=c1c(O)c(-c2ccc(O)cc2O)oc2cc(O)cc(O)c12` [Example 61, Morin] yielded a PGD2 % [3] of 19%, a PGE2 % [3] of 54% and a PGF2alpha % [3] of 27%.

In the case of `N[C@@H](CS)C(=O)O` [cysteine], the “stimulation of prostaglandin synthesis” value (result in words) is reported as “stimulated”.

`N[C@@H](CCS)C(=O)O` [homocysteine] was tested, and the “stimulation of prostaglandin synthesis” value (result in words) was “stimulated”.

GlyTrpGly [Example 25] was tested, and the “relative total prostaglandin f” value [4] was 13.0, the PGD2 % [2] was 20% and the PGE2 % [2] was 79%. It also gave a PGF2alpha % [2] of 1%.

With LeuTrp [Example 27] the “relative total prostaglandin f” value [4] was 17.0, the PGD2 % [2] was 22% and the PGE2 % [2] was 77%. For the same compound, the PGF2alpha % [2] was 1%.

LeuTrpMet [Example 29] was tested, and the “relative total prostaglandin f” value [4] was 10.8, the PGD2 % [2] was 22% and the PGE2 % [2] was 69%. The PGF2alpha % [2] was 9%.

TrpAla [Example 26] was tested, and the “relative total prostaglandin f” value [4] was 12.6, the PGD2 % [2] was 22% and the PGE2 % [2] was 77%. It also gave a PGF2alpha % [2] of 1%.

With TrpTrp [Example 24] the “relative total prostaglandin f” value [4] was 11.7, the PGD2 % [2] was 23% and the PGE2 % [2] was 75%. For the same compound, the PGF2alpha % [2] was 2%.

In the case of TyrTrp [Example 31], the “relative total prostaglandin f” value [4] is reported as 6.3, the PGD2 % [2] is reported as 14% and the PGE2 % [2] is reported as 73%. It also gave a PGF2alpha % [2] of 3%.

TyrTyrTyrOCH3 [Example 30] was tested, and the “relative total prostaglandin f” value [4] was 5.3, the PGD2 % [2] was 11% and the PGE2 % [2] was 75%. For the same compound, the PGF2alpha % [2] was 4%.

For YCEHFRWG [Example 38], the Stimulation (Table 1, result in words) was “positive”.
